Read-outs that look alike come from different tables or passages of the source.
Legend:
[1] = tested on: ascites cells of Walker-250-carcinosarcoma; test: Cytotoxicity test by the 3H-thymidine-incorporation test on ascites cells; format: cell-based, rats; details: Rattus norvegicus, read-out: mean value of the inhibition of 3H-thymidine incorporation
Source text: 5. Cytotoxicity test by the ^3 H-thymidine-incorporation test on ascites cells
Since in the granulocytic test some substances lyse the granulocytes at high concentrations we examined the cell-damaging effect at the model of the ^3 H-thymidine-incorporation test in ascites cells to be able to find a possible relation between the phagocytosis increase and cytotoxicity in potential active substances.
In this in-vitro-test system according to WEITZEL et al (H oppe-Seyler's Z. physiolog. Chem. 348, 433, 1967) the cytotoxicity of substances by inhibition of the DNA-synthesis of tumour cells can be numerically determined by the changed incorporation rates of ^3 H-thymidine in ascites cells of Walter-250-carcinos arcoma of rats.
The test was carried out as follows: 3 ml of cell suspension of Walker-250-carcinosarcoma-ascites were mixed with 10 ml of MEDIUM L-15 (Boehringer) in a 50 ml centrifugal glass and centrifugated for 10 minutes. The supernatant was decanted and the centrifugal glass was filled up with medium to 1 cm below the rim. From the stirred cell suspension 1 ml (corresponds to 2×10^6 cells/ml) per sample was given into a centrifugal glass and 500 μl of the test solution were added, the control test was carried out with 500 μl of medium. […] The filters were given in polyethylene flasks and the activities were measured in toluene-scintillator. […]

diluted whole blood = test: Chemiluminescence test (CL), whole blood method; format: cell-based; details: Homo sapiens, 1 h, read-out: Percental increase of the CL-response
Protocol: (§1) 2. Chemiluminescence test (CL)
(§2) The low light yield of such CL-reactions of phagocytised cells is increased in the in-vitro-experiment by the addition of substances which are oxydated by activated oxygen and thus produce light of a certain wavelength, which can be physically measured. Suitable substrates are luminole (5-amino-2,3-dihydro-1,4-phthalazindione) and lucigenine (10,10'-dimethyl-9,9'-biacri-diniumdinitrate), which increase the CL-response by 10^3 times.
(§3) All tests were carried out in 6-channel-Biolumat LB 9505 of Berthold, connected to an Apple-computer with a CL-evaluation program of Berthold.
(§4) Lucigenine was chosen for light amplification which emits photons at a narrow wavelength distribution of about 510 nm and thus almost lies in the optimum of the photo-multiplier sensitivity.
(§5) The pH-value of the measuring solution should be between 7.1 and 7.4, which is obtained by the addition of veronal-buffered salt solution. The test substances were dissolved in phosphate-buffered salt solution, (PBS-buffer). Both buffer systems contain 0.1% of glucose, because the "respiratory-burst"-reaction is connected with an increase of the glucose-metabolism.
(§6) Opsonised zymosan was used for phagocyte-activation. The measurement of the CL of isolated granulocytes was carried out with native blood of isolated polymorphonuclear leucocytes (PMNL), which had been adjusted with PBS-Puffer to 10^6 […].
(§7) The test substances were first together with the isolated granulocytes or with the whole blood incubated at room temperature for 10 minutes and then in biclumate for 10 minutes at 37° C. After addition of the opsonised zymosan, measurement in the biolumat at 37° C. started. […] A curve which was typical for each substance was obtained. The integrated surfaces are directly proportional to the intensity of the CL-response.
(§8) For determining the stimulation of the "respiratory-burst" of granulocytes,which had taken place, the same formula as for the granulocytic test was used.
20 ml of native blood were mixed with 30 mg EDTA as anti-coagulant and diluted 1:100 with PBS-buffer.
460 μl of veronal-buffered salt solution
200 μl of diluted whole blood
(§9) 100 μl of lucigenine-solution
(§10) 200 μl of substance dissolved in PBS and PBS as control
(§11) After preincubation at room temperature for 10 minutes and subsequent incubation for 10 minutes at 37° C. in 6-channel-Biolumat, 40 μl of opsonised zymosan were admixed under through stirring and measurement was started. Measuring was stopped after 60 minutes.
(§12) The CL-response of the samples was stored by a computer over the measuring period, and after measurement illustrated in the form of a curve. By integration of the surfaces, the intensity of the CL-response of the respective sample was obtained in cpm.
(§13) The increase S of the CL-response by a test substance was calculated according to [formula]

[2] = tested on: isolated polymorphonuclear leucocytes (PMNL); test: Chemiluminescence test (CL), PMNL method (isolated granulocytes); format: cell-based, human; details: for Peak-Maximum: control 2.12; for tmax: control 50.0
Protocol: as §1, §2, §3, §4, §5, §6, §7, §8
20 ml of native blood were mixed with 30 mg EDTA. 15 ml of this blood were mixed with 7 ml of dextran in a syringe and allowed to stand at room temperature for 30 minutes. The leucocyte-containing supernatant was transfered into a sterile centrifugal tube and centrifugated at 1000 r.p.m. for 10 minutes. The deposit consisted of leucocytes and residual portions of erythrocytes, which can influence measurement by their colour quench. The residual erythrocytes were removed by hypotonic lyis. For this purpose, the deposit was suspended in 0.25% of NaCl-solution and agitated on the whirlmix for 20 seconds. Then 20 ml of 1.6% NaCl-solution were admixed and agitated again. After centrifugation at 2000 r.p.m. for 10 minutes, the supernatant was sucked off and the whole process was repeated twice. Subsequently, the deposit was suspended in 2 ml of PBS-buffer and diluted 1:10 with Turcks-solution. It was adjusted in the Neubauer's chamber with PBS-buffer to 10^6 -cells/ml.
630 μl of veronal-buffered salt solution
as §9, §10, §11, §12, §13

[3] = tested on: neutrophil granulocytes (PMNL); test: Granulocytic test modified after BRANDT (phagocytosis of yeast particles); format: cell-based, human; details: up to dilutions of 10^-6 %
Source text: 1. […] They represent about 60-70% of all leucocytes in the human blood. The phagocytosis effect of all these granulocytes can be measured in vitro according to a method developed by BRAND (Scand. J. Haematol. Suppl. 2, 1967) and modified by TYMPNER (Munich Med. Weekly 8, 251, 1978).
A granulocytic fraction is taken from the blood of healthy probands (PMNL--abbreviation of polymorphonuclearleucocytes)
This PMNL-fraction mainly consists of neutrophil granulocytes and few eosinophil and basophil granulocytes as well as of lymphocytes, monocytes and thrombocytes. After addition of a defined amount of yeast cells (Saccharomyces cerevisiae) and the substance to be tested incubation is carried out for 10 minutes at 37° C., the suspension is spread on an object carrier and incubated at room temperature for further 35 minutes. Then the spreads are coloured and microscopically evaluated. 100 PMNL-cells are selected per object carrier, and it is determined how many yeast particles of the individual cells have been phagocytised. The phagocytosis index indicates the average number of phagocytised yeast particles.
15 ml of heparinised venous blood of clinically healthy adults was diluted with 1.5% of dextran T 500 (Pharmacia) 2:1 and allowed to stand at room temperature for 30 minutes. The supernatant containing leucocytes was injected into a sterile plastic tube and centrifugated for 7 minutes at 500 r.p.m. The granulocytes in the deposit were washed twice with 5 ml of PPM I-buffer in each case. Then the granulocytes were suspended in about 5 ml of buffer and adjusted in the Neubauer's chamber to a concentration of 5×10^6 cells/ml.
Yeast suspended in 0.9% of NaCl was heated to 100° C., three times filtered through gaze and adjusted to 3-5×10^7 particles/ml.
The serum of 5 clinically healthy adults was mixed and frozen in portions of 5 ml. For the test dilution was carried out with 0.9% of NaCl 1:10.
The test was carried out as follows: 0.2 ml of substance dissolved in 0.9% of NaCl and 0.2 ml of 0.9% NaCl, as a control substance, were pipetted to 0.2 ml, each, of pool serum, granulocyte- and yeast suspension and first incubated for 10 minutes at 37° C. Then 0.5 ml of each preparation were applied to an object carrier and incubated in a humid chamber at room temperature for further 35 minutes. Granulocytes deposited, the supernatant was carefully washed with 0.9% of NaCl, and the object carrier was dried with a dryer.
100 granulocytes were counted out per object carrier, and it was determined how many yeast particles of the individual cells had been phagocytised. The phagocytosis index (PJ) indicates the average number of yeast particles per granulocyte. The increase (S) of the phagocytosis activity in the blank value was calculated according to: [formula]

macrophage-phagocytosis = details: concentrations of 10^-4 % and 10^-5 %; cited from earlier work
[4] = isolated granulocytes, concentration 10^-4 %
[5] = isolated granulocytes, concentration 10^-5 %
[6] = isolated granulocytes, concentration 10^-6 %
[7] = isolated granulocytes, concentration 10^-7 %
[8] = isolated granulocytes, concentration 10^-8 %

## CN(Cc1cnc2nc(N)nc(N)c2n1)c1ccc(C(=O)N[C@@H](CCC(=O)O)C(=O)O)cc1 [Methotrexat®, N-[4-[[(2,4-Diamino-6-pteridinyl)methyl]methylamino]benzoyl]-L-glutamic acid]
[1]
  inhibition at 2000 µg/mL: 43%

## COc1cccc2c1cc([N+](=O)[O-])c1c(C(=O)O)cc3c(c12)OCO3 [aristolochic acid]
Diluted whole blood; concentration 10^-3 %
  activation at 0.001 %: 51.9%
Diluted whole blood; concentration 10^-4 %
  activation at 0.0001 %: 19.2%
Diluted whole blood; concentration 10^-5 %
  activation at 1e-05 %: 21.8%
Diluted whole blood; concentration 10^-6 %
  activation at 1e-06 %: 14%
Diluted whole blood; concentration 10^-7 %
  activation at 1e-07 %: 5.5%
[2]; Homo sapiens, 1 h, PMNL, concentration 10^-4 %, read-out: Percental increase of the CL-response
  activation at 0.0001 %: 85.1%
[2]; Homo sapiens, 1 h, PMNL, concentration 10^-5 %, read-out: Percental increase of the CL-response
  activation at 1e-05 %: 93.5%
[2]; Homo sapiens, 1 h, PMNL, concentration 10^-6 %, read-out: Percental increase of the CL-response
  activation at 1e-06 %: 68.3%
[2]; Homo sapiens, 1 h, PMNL, concentration 10^-7 %, read-out: Percental increase of the CL-response
  activation at 1e-07 %: 61.9%
[2]; Homo sapiens, 1 h, PMNL, concentration 10^-8 %, read-out: Percental increase of the CL-response
  activation at 1e-08 %: 58.7%
[2]; Homo sapiens, 1 h, PMNL, concentration 10^-9 %, read-out: Percental increase of the CL-response
  activation at 1e-09 %: 31.3%
[2]; Homo sapiens, PMNL, 1 h, isolated granulocytes, concentration 10^-4 %, read-out: Increase of CL-response
  activation at 0.0001 %: 126%
[2]; Homo sapiens, PMNL, 1 h, isolated granulocytes, concentration 10^-5 %, read-out: Increase of CL-response
  activation at 1e-05 %: 160%
[2]; Homo sapiens, PMNL, 1 h, isolated granulocytes, concentration 10^-6 %, read-out: Increase of CL-response
  activation at 1e-06 %: 69.8%
[2]; Homo sapiens, PMNL, 1 h, isolated granulocytes, concentration 10^-7 %, read-out: Increase of CL-response
  activation at 1e-07 %: 52.8%
[2]; Homo sapiens, PMNL, 1 h, isolated granulocytes, concentration 10^-8 %, read-out: Increase of CL-response
  activation at 1e-08 %: 93.4%
[2]; [4]
  Peak-Maximum: 4.80 cpm × 10^5
  tmax: 30.0 min
[2]; [5]
  Peak-Maximum: 5.52 cpm × 10^5
  tmax: 32.6 min
[2]; [6]
  Peak-Maximum: 3.40 cpm × 10^5
  tmax: 34.6 min
[2]; [7]
  Peak-Maximum: 3.24 cpm × 10^5
  tmax: 32.0 min
[2]; [8]
  Peak-Maximum: 4.10 cpm × 10^5
  tmax: 29.3 min
[2]; isolated granulocytes, lower by a power of ten than in the granulocytic test
  concentration of the efficiency maximum in the CL-test: 10^-5%

## CC[C@]1(O)C[C@H]2CN(CCc3c([nH]c4ccccc34)[C@@](C(=O)OC)(c3cc4c(cc3OC)N(C=O)[C@H]3[C@@](O)(C(=O)OC)[C@H](OC(C)=O)[C@]5(CC)C=CCN6CC[C@]43[C@@H]65)C2)C1 [vincristine, reference compound]
[3]
  effect in the granulocytic test: no effects have been found
macrophage-phagocytosis
  in-vitro-inhibition of the macrophage-phagocytosis: in-vitro-inhibitionof the macrophage-phagocytosis has been found

Reference: patent US5302611A, “Oxindole alkaloids having properties stimulating the immunologic system & preparation containing the same” (Keplinger; Klaus, priority 1980, dated 1994)
